Reference: patent publication US20190142835A1, “INHIBITION OF AUTOPHAGY USING PHOSPHOLIPASE A2 INHIBITORS” (OREGON HEALTH & SCIENCE UNIVERSITY, priority 2017, published 2019)

Experiments:
[1] = test system: PI3K, mTORC1 and mTORC2 signaling; test: Western blotting of PI3K-AKT-mTOR signaling; assay type: cell-based, human; conditions: added to CYT387
Experimental: Cells were plated in 6 well dishes and treated the following day with the indicated agents. Treatments were for 24 hours, after which cells were washed with ice cold PBS and lysed with RIPA buffer (Sigma). Phosphatase inhibitor cocktail set II and protease inhibitor cocktail set III (EMD Millipore) were added at the time of lysis. Lysates were centrifuged at 15,000 g×10 min at 4 degrees C. Protein concentrations were calculated based on a BCA assay (Thermo Scientific) generated standard curve. Proteins were resolved using the NuPAGE Novex Mini Gel system on 4% to 12% Bis-Tris Gels (Invitrogen). For western blotting, equal amounts of cell lysates (15-20 μg of protein) were resolved with SDSPAGE, and transferred to membranes. The membrane was probed with primary antibodies, washed, and then incubated with corresponding fluorescent secondary antibodies and washed. The fluorescent signal was captured using LI-COR (Lincoln, Nebr.) Odyssey Imaging System, and fluorescent intensity was quantified using the Odyssey software where indicated. The following antibodies were used for Western blots: p-S6 (S240/244), S6, LC3B, p-Akt(S473), p-Akt(T308), Akt, cleaved caspase3 (Cell Signaling Technologies). p-Stat3 (Y705), Stat3 and β-actin (AC15) (Abcam). Ki67 (Dako) and cleaved caspase3 (Cell Signaling Technologies) were used for immunohistochemistry. […] BX795 and GDC0941 were purchased from Sigma.

ACHN cells [2] = test: Cell viability (CellTiter-Glo), ACHN; assay type: cell-based, human; conditions: ACHN, 3 days
Experimental: (§1) Cell viability assays were performed by plating 2000 cells/well in 96-well plates in triplicate and treating the following day with the indicated agent. The experiment was continued for 3 days and then cell viability was determined using CellTiter-Glo assay kit (Promega).
The assay was measured using a luminometer. […] Experimental results are the average of at least three independent experiments.

SN12C cells [3] = test: Cell viability (CellTiter-Glo), SN12C; assay type: cell-based, human; conditions: 3 days
Experimental: as §1, with “(Promega). The assay was measured using a luminometer. […] Experimental results are the average of at least three independent experiments.” for “(Promega).”

ACHN cells [4] = test: Apoptosis (Caspase 3/7-Glo), ACHN; assay type: cell-based, human; conditions: ACHN, 72 h
Experimental: (§2) Apoptosis was determined using Caspase 3/7-Glo assay kit (Promega) following the manufacturer's instructions. Briefly, 2000 cells per well were plated in 96 well plates and cultured for 72 h. […] Caspase 3/7 activity was measured using a luminometer. Luminescence values were normalized by cell numbers.

SN12C cells [5] = test: Apoptosis (Caspase 3/7-Glo), SN12C; assay type: cell-based, human; conditions: 72 h
Experimental: as §2

ACHN xenografts = test: ACHN xenograft study; assay type: in vivo
Experimental: (§3) 6-week old mice were utilized for human renal cell carcinoma xenografts. For both ACHN and SN12C cell lines 2×10^6 cells were diluted in 50 μl of PBS and 50 μl of Matrigel (BD Biosciences) and were injected subcutaneously into the right and left flank of each mouse. Tumors were monitored until they reached an average size of 50-80 mm3 (approximately 2 weeks), at which point treatments were begun. […] MK2206 (60 mg/kg/day) were administered by oral gavage 2-3 day/week. […] Tumors and mouse weights were measured twice weekly. At least 6-8 mice per treatment group were included. All mice were euthanized using CO2 inhalation followed by cervical dislocation per institutional guidelines at Oregon Health and Science University. Experiments were approved by the Institutional Animal Care and Use Committee at OHSU.
(§4) Immunostaining was performed following deparaffinization and rehydration of slides. Antigen retrieval was performed in a pressure cooker using citrate buffer (pH 6.0) for 4 min. Nonspecific binding was blocked using Vector mouse IgG blocking serum 30 min at room temperature. Samples were incubated at room temperature with rabbit monoclonal antibodies pS6 (CST #5364) cleaved caspase 3 (CST#9661), and Ki67 (Dako#M7240).
(§5) Slides were developed with Vector Immpress rabbit IgG (#MP7401) and Vector Immpress mouse IgG (#MP7400) for 30 min at room temperature. Chromogenic detection was performed using Vector Immpact DAB (#SK4105) for 3 min. Slides were counterstained with hematoxylin. A 3DHistech MIDI Scanner (Perkin Elmer) was used to capture whole slide digital images with a 20× objective. Images were converted to into MRXS files and computer graphic analysis was completed using inForm 1.4.0 Advanced Image Analysis Software (Perkin Elmer).
Mouse tumor size was analyzed by 2-way ANOVA with time and drug as factors, using GraphPad Prism. Mouse weight during treatment was analyzed by repeated measures 2-way ANOVA, with time and drug as factors. A P value less than 0.05 was considered statistically significant. Immunohistochemistry: P-values were calculated using one-way ANOVA, with Bonferroni's multiple comparison test. * denotes P<0.05, ** denotes P<0.01, and *** denotes P<0.001 throughout this disclosure. Metabolite fold-changes were computed and visualized in Python script, using the openpyxl package (for importing Excel files) and the matplotlib package (for visualizing fold changes).

SN12C xenografts = test: SN12C xenograft study; assay type: in vivo; conditions: SN12C; CYT387 50 mg/kg/day or MK2206 60 mg/kg/day oral gavage
Experimental: as §3, §4
as §5, with “Images were converted to into MRXS files and computer graphic analysis was completed using inForm 1.4.0 Advanced Image Analysis Software (Perkin Elmer).” left out
Mouse tumor size was analyzed by 2-way ANOVA with time and drug as factors, using GraphPad Prism. Mouse weight during treatment was analyzed by repeated measures 2-way ANOVA, with time and drug as factors. […] Immunohistochemistry: P-values were calculated using one-way ANOVA, with Bonferroni's multiple comparison test. * denotes P<0.05, ** denotes P<0.01, and *** denotes P<0.001 throughout this disclosure. […]

glycolysis = test: Glucose uptake and lactate excretion as readouts for glycolysis; assay type: cell-based, human
From the text: The PI3K-AKT-mTOR pathway regulates multiple steps in glucose uptake and metabolism.

ACHN cells [6] = test: Cellular respiration (XF96 Seahorse, ECAR and OCR); assay type: cell-based, human; conditions: XF-96 Extracellular Flux Analyzer
Experimental: Oxygen consumption and extracellular acidification rates were carried out in a XF96 Seahorse Analyzer (Seahorse Bioscience, Billerica, Mass., USA). Cells were plated in the wells of 96-well plates (8×10^3 cells/well; XF96 plates, Seahorse Bioscience, North Billerica, Mass.) and incubated at 37° C. overnight. The next day, cells were treated with indicated drugs for 24 hours and then the medium was changed to XF Assay Medium and loaded with glucose, oligomycin, and 2-DG, respectively, as manufacture's recommendation.

ACHN cells [7] = test: Redox homeostasis (p-AMPK, NADPH, GSSG/GSH, ROS); assay type: cell-based, human; conditions: 2 μM CYT387, 10 μM MK2206, 24 hr
Experimental: ROS levels were measured with Cellrox Deep Red (Molecular Probes). Cell were plated in a 96 well clear bottom with black sides cell culture plate. […] The complete media+drug was removed after 24 hours and replaced with 5 μM of Cellrox Deep Red in media. Cells were incubated for 30 min at 370 C then washed with PBS. Fluorescence signal was detected using a Bioteck Cytation 5 plate reader. Data was analyzed using Prism software.

ACHN cells [8] = test: Lipid droplet staining (Bodipy 493/503), ACHN; assay type: cell-based, human; conditions: 24 hrs; p<0.001 vs control
Experimental: (§6) Cells were grown on coverslips then treated with drug for 24 hours. Cells were fixed in 4% paraformaldehyde for 15 min, rinsed with PBS. Cells were washed with a 1% saponin solution for 15 min at room temperature then washed several times in PBS to remove detergent. Cells were then incubated in Bodipy (ThermoFisher #D3922) at a final concentration of 1 uM for 10 min. Bodipy was removed and slides were rinsed with PBS then air dried and mounted on slides using Dako mounting media with Dapi.

[9] = test system: Atg5+/+ murine embryonic fibroblasts; test: Lipid droplet number in Atg5+/+ MEFs; assay type: cell-based, mouse; conditions: 24 hr
Experimental: as §6

[10] = test system: Atg5−/− murine embryonic fibroblasts; test: Lipid droplet number in Atg5−/− MEFs; assay type: cell-based, mouse; conditions: ATG5 deficient, 24 hr
Experimental: as §6

Structure (SMILES): NC1(c2ccc(-c3nc4ccn5c(=O)[nH]nc5c4cc3-c3ccccc3)cc2)CCC1 [MK2206]
- effect on mTORC1 activity in cells treated with CYT387 [1]: additive inhibitory effect on mTORC1 activity
- proliferation (cell viability) (ACHN cells [2]): some anti-proliferative effects
- proliferation (cell viability) (SN12C cells [3]): some anti-proliferative effects
- apoptosis (cleaved-caspase 3/7) (ACHN cells [4]): little or no effect on apoptosis
- apoptosis (cleaved-caspase 3/7) (SN12C cells [5]): little or no effect on apoptosis
- antitumor effect of single agent (ACHN xenografts; ACHN, CYT387 50 mg/kg/day or MK2206 60 mg/kg/day oral gavage): exhibited antitumor effect
- number of adipophilin-positive LDs in tumors (ACHN xenografts; treatment day 40, ACHN xenograft tumors, CYT387<MK2206<CYT387+MK2206, p=0.0046): significantly and incrementally increased
- antitumor effect of single agent (SN12C xenografts): exhibited antitumor effect
- lactate/glucose ratio in extracellular media (glycolysis; Control: 1.51): 0.81
- glucose uptake (glycolysis; in vitro, 18FDG): significantly decreased glucose uptake
- lactate production (glycolysis; in vitro, culture media): reduced lactate production
- ECAR (ACHN cells [6]): significantly reduced the ECAR
- GSSG/GSH ratios (ACHN cells [7]): maintains GSSG/GSH ratios
- NADPH levels (ACHN cells [7]): increases NADPH levels
- ROS (ACHN cells [7]): mitigates ROS
- p-AMPK (ACHN cells [7]): activates p-AMPK
- number of lipid droplets (ACHN cells [8]): increase in the number of lipid droplets
- size of lipid droplets (ACHN cells [8]): increase in the size of lipid droplets
- LD numbers [9]: significantly increase LD numbers
- lipid droplets [10]: no increase in lipid droplets
